In ChEMBL document CHEMBL4184137, “Lysine Deacetylase Inhibitors in Parasites: Past, Present, and Future Perspectives” (J Med Chem, 2017):
Each block holds one compound with its values, some of them ahead of it.

Experiments:
[1] = Selectivity index, ratio of IC50 for African green monkey Vero cells to IC50 for Plasmodium falciparum D6; format: toxicity; settings: read-out: Ratio IC50
[2] = test system: Plasmodium falciparum; assay: Antimalarial activity against Plasmodium falciparum using Malstat reagent by parasite lactate dehydrogenase assay; format: functional, organism-based
[3] = Selectivity index, ratio of IC50 for African green monkey Vero cells to IC50 for Plasmodium falciparum W2; format: toxicity; settings: read-out: Ratio IC50
[4] = test system: Leishmania donovani; assay: Antilieshmanial activity against promastigote stage of Leishmania donovani by fluorimetric assay; format: functional, organism-based
[5] = test system: Leishmania donovani; assay: Antilieshmanial activity against amastigote stage of Leishmania donovani by fluorimetric assay; format: functional, organism-based
[6] = target: T1, Histone deacetylase (Plasmodium falciparum, UniProt Q9XYC7); assay: Inhibition of recombinant Plasmodium falciparum HDAC1 using HDAC substrate-3 after 30 mins by fluorescence assay
T1 sequence (Q9XYC7 whole entry): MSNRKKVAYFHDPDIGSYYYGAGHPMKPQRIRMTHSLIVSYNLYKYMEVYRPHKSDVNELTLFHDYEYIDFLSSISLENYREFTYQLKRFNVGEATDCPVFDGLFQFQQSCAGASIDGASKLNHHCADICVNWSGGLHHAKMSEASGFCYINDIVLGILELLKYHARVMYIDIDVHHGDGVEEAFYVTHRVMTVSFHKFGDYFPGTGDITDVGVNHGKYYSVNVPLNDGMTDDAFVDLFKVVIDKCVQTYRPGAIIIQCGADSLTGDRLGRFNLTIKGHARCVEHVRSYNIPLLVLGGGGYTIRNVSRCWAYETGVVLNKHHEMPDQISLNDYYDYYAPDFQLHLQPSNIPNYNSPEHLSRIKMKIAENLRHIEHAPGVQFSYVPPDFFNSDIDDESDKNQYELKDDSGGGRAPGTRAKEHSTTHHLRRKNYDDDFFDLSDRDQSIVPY

[7] = test system: Trypanosoma brucei brucei; assay: Antitrypanosomal activity against Trypanosoma brucei brucei measured after 22 hrs by fluorescence-based Alamar blue viability assay; format: functional, organism-based
[8] = test system: Trypanosoma brucei; assay: Inhibition of recombinant Trypanosoma brucei HDAC3 at 5 uM after 30 mins
[9] = test system: Toxoplasma gondii; assay: Antiparasitic activity against tachyzoite stage of Toxoplasma gondii; format: functional, organism-based
[10] = test system: Trypanosoma brucei; assay: Inhibition of recombinant Trypanosoma brucei HDAC1 at 5 uM after 30 mins
[11] = test system: HEK293; assay: Cytotoxicity against HEK293 cells after 48 hrs by resazurin assay; format: cell-based; settings: Homo sapiens, HEK293, 48 h
[12] = test system: Plasmodium falciparum; assay: Antimalarial activity against Plasmodium falciparum infected in human erythrocytes preincubated for 48 hrs followed by [3H]-hypoxanthine addition measured after 24 hrs by scintillation counting assay; format: functional, organism-based
[13] = target: T2, Histone deacetylase (Plasmodium falciparum) (UniProt Q9XYC7); assay: Inhibition of recombinant HDAC1 in recombinant Plasmodium falciparum at 1 uM using Ac-RGK(Ac)-AMC fluorogenic peptide as substrate preincubated for 1 hr followed by substrate addition measured after 10 min by fluorescence assay
T2 sequence (whole entry): T1 sequence (Q9XYC7 whole entry)

[14] = test system: NFF; assay: Cytotoxicity against human NFF cells after 72 hrs by SRB assay; format: cell-based
[15] = Selectivity index, ratio of IC50 for N-terminal His6-tagged recombinant Leishmania infantum SIR2RP1 expressed in Escherichia coli to IC50 for human SIRT1
[16] = target: T3, NAD-dependent protein deacetylase sirtuin-1 (Homo sapiens, UniProt Q96EB6); assay: Inhibition of human SIRT1 in presence of NAD+ by fluorimetric method
T3 sequence (Q96EB6 whole entry): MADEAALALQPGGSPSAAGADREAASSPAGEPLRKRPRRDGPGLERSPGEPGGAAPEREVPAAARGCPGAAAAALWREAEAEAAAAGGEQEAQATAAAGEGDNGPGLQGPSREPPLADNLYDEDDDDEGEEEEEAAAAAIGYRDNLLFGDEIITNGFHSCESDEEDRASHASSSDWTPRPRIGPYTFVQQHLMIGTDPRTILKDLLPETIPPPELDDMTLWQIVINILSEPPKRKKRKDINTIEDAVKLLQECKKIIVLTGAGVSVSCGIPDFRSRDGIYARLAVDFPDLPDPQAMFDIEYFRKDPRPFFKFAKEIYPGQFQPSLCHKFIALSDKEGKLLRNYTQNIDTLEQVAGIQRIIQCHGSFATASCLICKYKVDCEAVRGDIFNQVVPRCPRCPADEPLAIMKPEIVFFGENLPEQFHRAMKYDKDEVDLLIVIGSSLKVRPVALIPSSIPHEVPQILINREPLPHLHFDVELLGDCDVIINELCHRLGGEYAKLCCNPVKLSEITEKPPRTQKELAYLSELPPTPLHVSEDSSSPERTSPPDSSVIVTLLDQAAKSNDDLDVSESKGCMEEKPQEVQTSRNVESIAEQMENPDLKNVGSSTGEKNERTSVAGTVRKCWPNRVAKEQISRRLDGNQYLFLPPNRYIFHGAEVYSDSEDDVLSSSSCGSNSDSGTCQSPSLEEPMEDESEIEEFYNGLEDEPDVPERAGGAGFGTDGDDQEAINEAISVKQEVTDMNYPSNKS

[17] = test system: Leishmania infantum; assay: Antileishmanial activity against amastigote stage of Leishmania infantum MHOM/MA671TMAP263 expressing luciferase after 72 hrs by luciferase assay; format: functional, organism-based; settings: MHOM/MA671TMAP263, 72 h
[18] = target: T4, Histone deacetylase 8 (Schistosoma mansoni, UniProt A5H660); assay: Inhibition of Schistosoma mansoni HDAC8 using Fluor de Lys(R) as substrate by fluorimetric assay
T4 sequence (A5H660 whole entry): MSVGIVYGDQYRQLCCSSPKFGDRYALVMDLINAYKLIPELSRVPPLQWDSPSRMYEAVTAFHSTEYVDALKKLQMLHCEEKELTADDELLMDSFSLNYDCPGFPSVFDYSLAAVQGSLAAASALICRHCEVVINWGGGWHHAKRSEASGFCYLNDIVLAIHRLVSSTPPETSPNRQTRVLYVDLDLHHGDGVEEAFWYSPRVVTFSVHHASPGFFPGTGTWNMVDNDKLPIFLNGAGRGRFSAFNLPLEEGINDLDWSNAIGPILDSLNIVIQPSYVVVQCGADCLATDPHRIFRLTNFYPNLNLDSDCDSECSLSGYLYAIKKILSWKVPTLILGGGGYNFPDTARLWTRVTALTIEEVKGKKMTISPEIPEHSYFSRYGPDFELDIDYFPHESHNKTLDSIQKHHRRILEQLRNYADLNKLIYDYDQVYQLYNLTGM

[19] = target: Histone deacetylase 1 (Homo sapiens, UniProt Q13547); assay: Inhibition of human HDAC1 using Z(Ac)Lys-AMC as substrate by fluorimetric assay
Chain of Histone deacetylase 1 (Q13547 whole entry): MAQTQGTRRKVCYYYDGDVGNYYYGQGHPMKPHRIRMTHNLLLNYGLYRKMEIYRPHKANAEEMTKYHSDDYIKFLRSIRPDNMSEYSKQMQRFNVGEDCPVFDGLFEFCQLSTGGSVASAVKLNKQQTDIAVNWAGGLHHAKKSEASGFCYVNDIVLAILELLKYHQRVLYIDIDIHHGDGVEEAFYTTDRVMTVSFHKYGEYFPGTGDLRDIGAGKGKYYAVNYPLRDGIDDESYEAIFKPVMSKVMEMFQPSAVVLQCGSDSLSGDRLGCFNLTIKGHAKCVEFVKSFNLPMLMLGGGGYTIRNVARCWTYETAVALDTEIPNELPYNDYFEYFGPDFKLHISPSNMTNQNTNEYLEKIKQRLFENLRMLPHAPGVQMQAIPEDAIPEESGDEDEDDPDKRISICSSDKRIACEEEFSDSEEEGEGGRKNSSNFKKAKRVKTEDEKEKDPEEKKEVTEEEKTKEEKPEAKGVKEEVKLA

[20] = test system: Schistosoma mansoni; assay: Antiparasitic activity against Schistosoma mansoni assessed as reduction in cell viability at 50 uM after 3 days relative to control; format: functional
[21] = target: T5, Protein deacetylase HDAC6 (Homo sapiens, UniProt Q9UBN7); assay: Inhibition of human HDAC6 using Z(Ac)Lys-AMC as substrate by fluorimetric assay
T5 sequence (Q9UBN7 whole entry): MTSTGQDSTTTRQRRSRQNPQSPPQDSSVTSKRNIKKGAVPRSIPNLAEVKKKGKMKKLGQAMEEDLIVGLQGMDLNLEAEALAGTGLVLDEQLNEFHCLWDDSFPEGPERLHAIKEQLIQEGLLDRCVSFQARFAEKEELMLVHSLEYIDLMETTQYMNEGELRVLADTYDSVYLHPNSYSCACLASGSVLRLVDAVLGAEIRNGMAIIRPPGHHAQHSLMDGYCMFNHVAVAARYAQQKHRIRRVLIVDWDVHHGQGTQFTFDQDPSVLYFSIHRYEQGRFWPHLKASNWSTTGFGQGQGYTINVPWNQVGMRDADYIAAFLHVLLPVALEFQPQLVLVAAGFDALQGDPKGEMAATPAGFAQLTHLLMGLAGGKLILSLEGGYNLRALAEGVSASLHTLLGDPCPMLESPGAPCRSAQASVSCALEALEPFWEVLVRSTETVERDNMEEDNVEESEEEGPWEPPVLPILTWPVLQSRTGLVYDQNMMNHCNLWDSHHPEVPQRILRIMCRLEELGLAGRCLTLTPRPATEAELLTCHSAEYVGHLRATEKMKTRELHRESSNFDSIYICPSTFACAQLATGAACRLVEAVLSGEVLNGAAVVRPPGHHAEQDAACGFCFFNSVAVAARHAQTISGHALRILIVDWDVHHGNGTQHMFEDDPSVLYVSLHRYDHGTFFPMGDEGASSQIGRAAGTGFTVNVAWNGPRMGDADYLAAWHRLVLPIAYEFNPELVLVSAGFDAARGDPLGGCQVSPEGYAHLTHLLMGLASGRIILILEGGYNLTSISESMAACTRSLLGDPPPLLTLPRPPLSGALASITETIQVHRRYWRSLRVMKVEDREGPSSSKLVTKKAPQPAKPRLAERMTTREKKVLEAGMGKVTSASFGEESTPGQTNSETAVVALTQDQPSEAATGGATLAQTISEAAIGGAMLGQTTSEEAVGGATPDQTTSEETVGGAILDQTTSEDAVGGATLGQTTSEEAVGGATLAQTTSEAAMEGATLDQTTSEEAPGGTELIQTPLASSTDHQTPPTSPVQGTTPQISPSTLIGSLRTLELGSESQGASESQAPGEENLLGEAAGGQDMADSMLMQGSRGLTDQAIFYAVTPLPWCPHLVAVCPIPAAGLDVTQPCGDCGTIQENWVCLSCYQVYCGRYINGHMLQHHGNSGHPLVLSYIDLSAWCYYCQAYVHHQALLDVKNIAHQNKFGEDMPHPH

[22] = target: T6, Histone deacetylase 8 (Homo sapiens, UniProt Q9BY41); assay: Inhibition of human HDAC8 using Fluor de Lys(R) as substrate by fluorimetric assay
T6 sequence (Q9BY41 whole entry): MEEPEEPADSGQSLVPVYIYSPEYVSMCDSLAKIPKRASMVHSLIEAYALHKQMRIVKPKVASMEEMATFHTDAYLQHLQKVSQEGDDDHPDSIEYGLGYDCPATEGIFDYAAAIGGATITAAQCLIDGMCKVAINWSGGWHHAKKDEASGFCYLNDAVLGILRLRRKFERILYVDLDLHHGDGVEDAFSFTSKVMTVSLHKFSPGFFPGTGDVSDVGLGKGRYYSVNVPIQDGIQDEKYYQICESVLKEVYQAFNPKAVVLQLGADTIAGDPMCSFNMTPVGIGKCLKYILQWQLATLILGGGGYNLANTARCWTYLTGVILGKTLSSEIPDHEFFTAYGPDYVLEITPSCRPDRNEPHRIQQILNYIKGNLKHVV

IC50 [2]: 760 to 1320 nM
IC50 [4]: 3.2 µM
IC50 [5]: 4.7 µM
IC50 [6]: 401 nM
Structure (SMILES): CC[C@H]1OC(=O)[C@H](C)[C@@H](O[C@H]2C[C@@](C)(OC)[C@@H](O)[C@H](C)O2)[C@H](C)[C@@H](O[C@@H]2O[C@H](C)C[C@H](N(C)Cc3ccc(-c4cn(CCCCCCCCCC(=O)NO)nn4)cc3)[C@H]2O)[C@](C)(O)C[C@@H](C)C(=O)[C@H](C)[C@@H](O)[C@]1(C)O
selectivity ratio [1]: > 3.4
selectivity ratio [3]: > 6

IC50 [7]: 7 µM
inhibition [8]: > 50%
inhibition [10]: > 50%
Structure (SMILES): CC(/C=C/C(=O)NO)=C\[C@@H](C)C(=O)c1ccc(N(C)C)cc1 [TRICHOSTATIN]
IC50 [9]: 41 nM

IC50 [7]: 1.69 µM
IC50 [12]: 10 to 30 nM
inhibition [13]: 100%
Structure (SMILES): Cc1[nH]c2ccccc2c1CCNCc1ccc(/C=C/C(=O)NO)cc1 [PANOBINOSTAT]
IC50 [11]: 70 to 180 nM
IC50 [14]: 70 to 180 nM

Ratio IC50 [15]: 17
IC50 [16]: 97.4 µM
IC50 [17]: 6.03 µM
Structure (SMILES): O=C1c2cccc3cccc(c23)C(=O)N1CCCNCCCCCCCCCNCCCN1C(=O)c2cccc3cccc(c23)C1=O

IC50 [18]: 4.3 µM
IC50 [19]: 19.4 µM
IC50 [21]: 37.4 µM
IC50 [22]: 3.1 µM
Structure (SMILES): O=C(NO)c1sc2ccccc2c1Cl
Activity [20]: 100%
